# Measured values: ChEMBL document CHEMBL1201862, “PubChem BioAssay data set” (2004)
# Active and inactive are the calls of the source.
# Experiments:
# Transthyretin = Transthyretin (Homo sapiens, UniProt P02766); test: Luminescence-based cell-based high throughput dose response assay to identify activators of Transthyretin (TTR) transcription.; format: functional
# [1] = microbe, parasite or virus in culture; format: functional; settings: Mycobacterium tuberculosis
# [2] = M. tuberculosis growth inhibition, HTS (AID 449762); format: functional
# Genome polyprotein = Genome polyprotein (Hepatitis C virus, UniProt Q2Q167); test: HCV core protein dimerization inhibitors, dose response, biochemical, TR-FRET (AID 2159); set-up: species or system Hepacivirus hominis;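 further: blocks dimerization of HCV core protein measured by TR-FRET between tagged core106 pairs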
# [3] = molecular target: T1, Tyrosine-protein phosphatase non-receptor type 7 (Homo sapiens, UniProt P35236); test: inhibitors of human HePTP phosphatase, […], biochemical, absorbance, leukemia target (AID 521); format: functional
# T1 sequence (P35236 whole entry): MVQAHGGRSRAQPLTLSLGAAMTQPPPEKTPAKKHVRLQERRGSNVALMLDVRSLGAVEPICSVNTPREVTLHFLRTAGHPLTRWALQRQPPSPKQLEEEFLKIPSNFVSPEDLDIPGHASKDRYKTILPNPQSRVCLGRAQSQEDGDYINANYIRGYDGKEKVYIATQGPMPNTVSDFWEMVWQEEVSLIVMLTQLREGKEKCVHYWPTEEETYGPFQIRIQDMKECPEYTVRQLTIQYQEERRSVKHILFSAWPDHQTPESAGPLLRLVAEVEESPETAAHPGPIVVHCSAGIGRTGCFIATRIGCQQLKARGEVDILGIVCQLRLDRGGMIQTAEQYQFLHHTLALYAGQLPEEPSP
# [4] = molecular target: Glutathione-S-transferase (Schistosoma japonicum, UniProt Q26513); test: biotin-GST/anti-GST TR-FRET signal inhibitors, dose response, artefact control for Vif-APOBEC3G degradation inhibitor project, biochemical (AID 1117362); format: functional
# [5] = molecular target: NAD-dependent protein deacylase sirtuin-5, mitochondrial (Homo sapiens, UniProt Q9NXA8); test: SIRT5 desuccinylase inhibitors, dose response, biochemical, fluorescence imaging, cherry-pick, set 5 (AID 720591);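 further: desuccinylation of succinyl peptide AMC substrate read as fluorescence after trypsin release; potency of inhibitors that lower fluorescence and may act on trypsin instead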
# Vero [6] = test: cells; format: functional; settings: Chlorocebus sabaeus
# Vero [7] = test: cells; format: functional, cell-based; settings: Chlorocebus sabaeus
# [8] = PAX2 cell-based inhibition, dose response, selectivity assay for PAX8 inhibitor project, plate reader, dry powder samples (AID 743048); format: functional;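 further: HEK293 cells carrying a WT1 promoter luciferase reporter driven by expressed Pax2; potency is for inhibition of Pax2 driven reporter signal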
# [9] = PAX5 activity inhibitors, dose response, selectivity assay for PAX8 inhibitor project, cell-based, plate reader, dry powder samples (AID 743047); format: functional;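 further: HEK293 cells carrying a Pax5 driven CD19 promoter luciferase reporter; potency of inhibitors that lower reporter luminescence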
# Paired box protein Pax-8 = Paired box protein Pax-8 (Homo sapiens, UniProt Q06710); test: inhibitors of PAX8-driven TPO luciferase reporter, dose response, RMG-I cells, cherry-pick (AID 687027); format: functional, cell-based;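 further: luciferase reporter driven by Pax8 target thyroperoxidase promoter measured by SteadyGlo luminescence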
# [10] = cytotoxicity dependent on PAX8, dose response, cell-based, plate reader, dry powder (AID 743049); format: functional
# [11] = molecular target: Sphingosine 1-phosphate receptor 2 (Homo sapiens, UniProt O95136); test: Dose Response Cell Based Assay for Agonists of the S1P2 Receptor. [Related pubchem assays: 729, 736, 843 ]; format: functional
# [12] = HepG2 cell cytotoxicity, dose response, cytotoxicity control, ATP luminescence, cherry-pick, set 6 (AID 1053125); format: functional, cell-based
# cells [13] = settings: HEK293
# [14] = molecular target: T2, Calpain-2 catalytic subunit (Sus scrofa, UniProt P43367); test: pig calpain II inhibitor potency, dose response, biochemical, fluorogenic peptide substrate (AID 1420); format: functional
# T2 sequence (P43367 whole entry): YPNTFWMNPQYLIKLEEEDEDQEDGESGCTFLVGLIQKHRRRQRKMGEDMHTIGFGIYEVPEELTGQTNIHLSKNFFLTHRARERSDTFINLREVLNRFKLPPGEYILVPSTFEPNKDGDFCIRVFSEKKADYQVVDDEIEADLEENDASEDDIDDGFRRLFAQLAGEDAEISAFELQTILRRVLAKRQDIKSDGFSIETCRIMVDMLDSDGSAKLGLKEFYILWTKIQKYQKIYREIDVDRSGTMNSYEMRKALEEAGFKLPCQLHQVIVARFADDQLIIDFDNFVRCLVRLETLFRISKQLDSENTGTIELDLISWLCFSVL
# [15] = cytotoxicity toward NIH3T3 fibroblasts, dose response, counter-screen, cell-based, ATP luminescence, mouse fibroblasts (AID 2010); format: functional;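 further: cells exposed to compound for about 90 hours before reading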
# cells [16] = test: cells
# [17] = inhibitors of intracellular T. cruzi replication, confirmation, NIH3T3 host cells, beta-gal luminescence (AID 2044); format: functional, cell-based;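 further: intracellular parasites grown in NIH/3T3 mouse fibroblasts as host cells; luminescent beta-galactosidase reporter signal from transgenic T. cruzi replicating inside host cells; inhibitors lower the luminescence signal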
# [18] = molecular target: Broad substrate specificity ATP-binding cassette transporter ABCG2 (Homo sapiens, UniProt Q9UNQ0); test: ABCG2 efflux pump inhibitors, dose response, Ig-MXP3 cells, flow cytometry (AID 1690); format: functional
# [19] = molecular target: ATP-dependent translocase ABCB1 (Homo sapiens, UniProt P08183); test: ABCB1 efflux pump inhibitor potency, dose response, Jurkat-DNR cells, JC-1, flow cytometry (AID 1689); format: functional
# Sequence of ATP-dependent translocase ABCB1 (P08183 whole entry): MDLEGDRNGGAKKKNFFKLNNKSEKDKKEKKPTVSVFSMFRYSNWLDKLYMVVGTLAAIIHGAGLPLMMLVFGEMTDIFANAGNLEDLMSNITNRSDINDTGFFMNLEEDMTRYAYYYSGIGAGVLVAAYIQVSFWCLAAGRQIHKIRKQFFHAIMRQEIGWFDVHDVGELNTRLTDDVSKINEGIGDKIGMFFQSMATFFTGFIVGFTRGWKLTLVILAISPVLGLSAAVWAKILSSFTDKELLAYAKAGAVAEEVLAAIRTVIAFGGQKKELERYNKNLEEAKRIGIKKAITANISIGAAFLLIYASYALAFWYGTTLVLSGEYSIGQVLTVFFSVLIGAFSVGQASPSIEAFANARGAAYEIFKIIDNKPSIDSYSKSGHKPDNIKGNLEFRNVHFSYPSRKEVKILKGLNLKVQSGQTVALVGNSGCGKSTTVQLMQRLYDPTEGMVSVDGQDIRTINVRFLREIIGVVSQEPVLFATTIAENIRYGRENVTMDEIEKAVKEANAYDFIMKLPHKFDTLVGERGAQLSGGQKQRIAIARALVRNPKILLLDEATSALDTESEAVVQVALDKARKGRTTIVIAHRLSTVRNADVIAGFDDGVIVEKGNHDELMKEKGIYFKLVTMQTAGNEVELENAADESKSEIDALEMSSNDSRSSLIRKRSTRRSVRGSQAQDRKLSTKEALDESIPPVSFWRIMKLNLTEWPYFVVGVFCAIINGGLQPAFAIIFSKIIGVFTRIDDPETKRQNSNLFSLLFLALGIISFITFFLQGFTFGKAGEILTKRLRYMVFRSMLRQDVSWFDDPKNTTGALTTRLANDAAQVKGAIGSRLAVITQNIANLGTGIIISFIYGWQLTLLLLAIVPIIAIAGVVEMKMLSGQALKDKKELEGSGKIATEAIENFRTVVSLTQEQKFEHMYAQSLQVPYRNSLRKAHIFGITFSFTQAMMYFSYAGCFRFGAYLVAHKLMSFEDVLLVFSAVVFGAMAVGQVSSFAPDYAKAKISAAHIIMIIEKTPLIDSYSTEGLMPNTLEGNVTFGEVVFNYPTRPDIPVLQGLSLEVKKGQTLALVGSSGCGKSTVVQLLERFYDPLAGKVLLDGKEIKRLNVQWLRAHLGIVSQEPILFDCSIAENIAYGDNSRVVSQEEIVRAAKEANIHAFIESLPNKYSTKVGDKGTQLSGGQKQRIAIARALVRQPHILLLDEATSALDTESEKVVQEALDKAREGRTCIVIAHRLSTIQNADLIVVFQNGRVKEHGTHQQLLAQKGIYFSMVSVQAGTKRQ
# Sequence of Glutathione-S-transferase (Q26513 whole entry): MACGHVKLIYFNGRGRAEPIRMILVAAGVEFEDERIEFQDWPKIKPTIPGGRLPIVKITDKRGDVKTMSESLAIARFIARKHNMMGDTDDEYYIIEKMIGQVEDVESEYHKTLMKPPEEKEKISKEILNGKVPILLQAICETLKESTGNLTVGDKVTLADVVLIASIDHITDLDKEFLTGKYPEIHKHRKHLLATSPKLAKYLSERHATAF
# Sequence of Genome polyprotein (Q2Q167 whole entry): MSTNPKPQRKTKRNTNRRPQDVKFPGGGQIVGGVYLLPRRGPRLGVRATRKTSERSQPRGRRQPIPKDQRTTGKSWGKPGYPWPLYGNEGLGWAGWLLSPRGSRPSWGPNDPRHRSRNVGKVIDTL
# Sequence of NAD-dependent protein deacylase sirtuin-5, mitochondrial (Q9NXA8 whole entry): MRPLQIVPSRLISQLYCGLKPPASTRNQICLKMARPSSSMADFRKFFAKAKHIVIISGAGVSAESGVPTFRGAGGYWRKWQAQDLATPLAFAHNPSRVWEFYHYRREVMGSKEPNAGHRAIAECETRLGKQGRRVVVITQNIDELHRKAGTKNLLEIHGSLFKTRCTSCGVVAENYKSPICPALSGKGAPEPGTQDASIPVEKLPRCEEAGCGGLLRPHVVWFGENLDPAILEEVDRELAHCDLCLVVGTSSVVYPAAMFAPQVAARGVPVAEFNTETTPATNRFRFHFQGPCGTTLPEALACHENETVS
# Sequence of Sphingosine 1-phosphate receptor 2 (O95136 whole entry): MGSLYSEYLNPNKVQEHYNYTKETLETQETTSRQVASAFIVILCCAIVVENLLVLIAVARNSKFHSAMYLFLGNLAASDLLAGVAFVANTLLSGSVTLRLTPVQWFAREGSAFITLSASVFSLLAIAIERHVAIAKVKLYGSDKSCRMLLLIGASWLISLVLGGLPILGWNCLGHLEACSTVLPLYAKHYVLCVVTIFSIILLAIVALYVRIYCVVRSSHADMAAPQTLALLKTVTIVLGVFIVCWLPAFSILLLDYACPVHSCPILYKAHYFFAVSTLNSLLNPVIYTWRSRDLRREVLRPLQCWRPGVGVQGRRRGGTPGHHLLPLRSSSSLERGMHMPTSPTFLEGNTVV
# Sequence of Paired box protein Pax-8 (Q06710 whole entry): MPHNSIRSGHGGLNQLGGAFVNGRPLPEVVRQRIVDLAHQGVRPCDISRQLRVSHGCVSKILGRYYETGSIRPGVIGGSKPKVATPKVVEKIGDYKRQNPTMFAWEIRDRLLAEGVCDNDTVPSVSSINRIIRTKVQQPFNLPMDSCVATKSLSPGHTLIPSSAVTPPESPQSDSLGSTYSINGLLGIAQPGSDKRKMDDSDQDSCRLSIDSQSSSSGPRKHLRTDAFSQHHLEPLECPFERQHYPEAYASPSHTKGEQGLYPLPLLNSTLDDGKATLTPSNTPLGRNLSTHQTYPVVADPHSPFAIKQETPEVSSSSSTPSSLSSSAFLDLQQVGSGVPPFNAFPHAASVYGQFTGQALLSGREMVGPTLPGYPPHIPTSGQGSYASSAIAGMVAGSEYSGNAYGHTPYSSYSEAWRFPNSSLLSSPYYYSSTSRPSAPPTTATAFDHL
# Sequence of Broad substrate specificity ATP-binding cassette transporter ABCG2 (Q9UNQ0 whole entry): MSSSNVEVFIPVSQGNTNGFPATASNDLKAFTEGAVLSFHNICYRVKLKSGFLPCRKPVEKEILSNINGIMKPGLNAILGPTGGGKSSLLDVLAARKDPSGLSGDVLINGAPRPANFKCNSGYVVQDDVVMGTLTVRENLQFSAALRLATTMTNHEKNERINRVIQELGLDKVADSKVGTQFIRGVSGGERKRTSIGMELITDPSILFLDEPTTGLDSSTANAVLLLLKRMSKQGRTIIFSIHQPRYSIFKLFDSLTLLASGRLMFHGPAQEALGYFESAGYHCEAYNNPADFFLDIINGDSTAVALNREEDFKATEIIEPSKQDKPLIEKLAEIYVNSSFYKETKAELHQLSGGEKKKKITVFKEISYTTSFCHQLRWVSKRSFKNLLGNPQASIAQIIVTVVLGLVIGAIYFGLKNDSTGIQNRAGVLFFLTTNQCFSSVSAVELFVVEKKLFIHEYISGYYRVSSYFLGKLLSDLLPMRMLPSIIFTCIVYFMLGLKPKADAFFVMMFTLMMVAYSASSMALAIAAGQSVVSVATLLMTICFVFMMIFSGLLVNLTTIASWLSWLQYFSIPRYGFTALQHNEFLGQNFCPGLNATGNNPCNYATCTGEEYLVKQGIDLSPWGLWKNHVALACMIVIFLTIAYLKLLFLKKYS
smiles,measurement,setting,value
Oc1cc(O)c2sc(Nc3ccc(Cl)c(F)c3)nc2n1,EC50,Transthyretin,> 167 µM (inactive)
COc1cc2c(-c3ccc4[nH]ccc4c3)c(-c3ccc(C#N)cc3)oc(=O)c2cc1OC,CC50,[1],> 40 µM (active)
same,IC50,[2],> 100 µM (active)
CC1(C)Cc2c(C#N)c(N3CCN(C(=O)c4ccco4)CC3)nc(-c3ccco3)c2CS1,IC50,Genome polyprotein,> 49.8 µM (not active)
O=c1c2c3c(sc2nc2n1CCC2)CCC3,IC50,[3],> 100 µM (not active)
Cn1cnnc1SC/C(O)=C(\C#N)c1nc2ccccc2[nH]1,IC50,[4],> 100 µM (active)
CCN1CCN(C(=O)c2ccc(C(F)(F)F)cc2)CC1,AC50,[5],> 30 µM (inactive)
O=C1/C(=C/c2ccccc2)SC(=S)N1CC(=O)N1CCCCC1c1cccnc1 (configuration not stated),CC50,Vero [6],14.6 µM (active)
same,IC50,Vero [7],> 25 µM (active)
same,AC50,[8],70.7 µM (active)
same,AC50,[9],61.9 µM (active)
same,AC50,Paired box protein Pax-8,4.37 µM (active)
same,AC50,[10],42.1 µM (active)
Cc1ccc(Cn2cccc(-c3nc4ccccc4s3)c2=O)cc1,EC50,[11],4.14 µM (active)
CCOC(=O)c1c(NC(=O)CSc2ncccn2)sc2c1CCN(Cc1ccccc1)C2,AC50,[12],> 52 µM (inactive)
same,AC50,cells [13],> 52 µM (inactive)
same,IC50,[14],5.71 µM (not active)
same,EC50,[15],> 60 µM (not active)
same,AC50,cells [16],> 70 µM (inactive)
same,EC50,[17],3.07 µM (active)
same,EC50,[18],1.88 µM (active)
same,EC50,[19],9.93 µM (active)
